Results from patent publication US12291533B2, “Substituted fused pyrimidine compounds and uses thereof” (Northwestern University, priority 2017, dated 2025).

Molecular target: T1, glucocerebrosidase (Homo sapiens, UniProt P04062)
T1 sequence (P04062 40-536): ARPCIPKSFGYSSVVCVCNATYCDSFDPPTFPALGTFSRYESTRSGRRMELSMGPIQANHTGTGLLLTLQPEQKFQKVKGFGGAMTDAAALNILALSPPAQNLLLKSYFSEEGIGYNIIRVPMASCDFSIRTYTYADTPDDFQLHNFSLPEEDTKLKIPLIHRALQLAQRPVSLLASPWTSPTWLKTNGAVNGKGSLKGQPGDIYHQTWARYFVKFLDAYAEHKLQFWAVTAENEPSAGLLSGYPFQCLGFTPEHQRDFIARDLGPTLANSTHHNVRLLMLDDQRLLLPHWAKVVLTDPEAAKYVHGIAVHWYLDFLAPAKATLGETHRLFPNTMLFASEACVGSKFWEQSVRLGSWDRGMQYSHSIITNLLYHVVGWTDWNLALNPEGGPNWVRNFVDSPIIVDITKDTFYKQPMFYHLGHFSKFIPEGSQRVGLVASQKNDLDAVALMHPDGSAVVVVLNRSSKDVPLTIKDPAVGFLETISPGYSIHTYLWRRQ
Assay: Glucocerebrosidase activity assay with blue substrate (4MU-Glc)
Format: biochemical
Conditions: Table 1, 7.5 nM enzyme, 1.5 mM 4MU-Glc, 30 min at 37° C.; for AC50: titration 24 nM to 50 μM
Method: Example 2—Glucocerebrosidase Activity Assay with Blue Substrate
The compounds in DMSO solution 0.5 μL/well were transferred to a black 96-well plate (the final titration was 24 nM to 50 μM, 12 concentrations, 2× dilution). 33.5 μL enzyme solution (7.5 nM final concentration) was transferred to the wells. After 5 min of incubation at room temperature, the enzyme reaction was initiated by the addition of 33 μL/well blue substrate. Final concentration of the blue substrate (4MU-Glc) was 1.5 mM. The blue substrate reaction was terminated by the addition of 33 μL/well stop solution (1 M NaOH and 1 M glycine mixture, pH 10) after 30 min of incubation at 37° C. The fluorescence was then measured in the Biotek Synergy H1 multi-mode plate reader with Ex=365 nm and Em=440 nm.
Additional compounds were synthesized and tested for glucocerebrosidase modulatory activity as described in Example 1 and Example 2.

Row | Emax | AC50 | Structure (SMILES)
1 | 750% | 3.55 µM | CN(CCOc1ccccc1)c1nc(-c2cccnc2)nc2ccccc12 [Compound 13]
2 | 190% | 1.58 µM | CN(CCOc1ccccc1)c1nc(-c2ccc(Cl)nc2)nc2ccccc12 [Compound 17]
3 | 180% | 15.8 µM | CN(CCOc1ccc(CCc2ccccc2)cc1)c1nc(-c2cccnc2)nc2ccccc12 [Compound 21]
4 | 500% | 3.55 µM | Cc1cccc(OCCN(C)c2nc(-c3cccnc3)nc3ccccc23)c1 [Compound 23]
5 | 225% | 3.98 µM | Cc1cc(C)cc(OCCN(C)c2nc(-c3cccnc3)nc3ccccc23)c1 [Compound 27]
6 | 350% | 3.16 µM | Cc1ccccc1OCCN(C)c1nc(-c2cccnc2)nc2ccccc12 [Compound 28]
7 | 190% | 2.82 µM | C#Cc1ccc(OCCN(C)c2nc(-c3cccnc3)nc3ccccc23)cc1 [Compound 33]
8 | 220% | 1.58 µM | CN(CCOc1ccccc1)c1nc(-c2ccc(F)nc2)nc2ccccc12 [Compound 36]
9 | 700% | 2.82 µM | CN(CCOc1ccccc1)c1nc(-c2cccnc2)nc2c(F)cccc12 [Compound 38]
10 | 450% | 2.82 µM | CN(CCOc1ccccc1)c1nc(-c2cccnc2)nc2cc(F)ccc12 [Compound 39]
11 | 450% | 1.58 µM | CN(CCOc1ccccc1)c1nc(-c2cccnc2)nc2ccc(F)cc12 [Compound 40]
12 | 180% | 13.5 µM | CN(CCOc1ccccc1)c1nc(-c2cccnc2)nc2cccc(F)c12 [Compound 41]
13 | 180% | 4.12 µM | CN(CCOc1ccccc1)c1nc(-c2cccnc2)nc2cc(C(F)(F)F)ccc12 [Compound 44]
14 | 120% | 5 µM | CN(CCOc1ccccc1)c1nc(-c2cccnc2)nc2ccc(C(F)(F)F)cc12 [Compound 45]
15 | 200% | 8.17 µM | CN(CCOc1ccccc1)c1nc(-c2ccc(O)nc2)nc2ccccc12 [Compound 51]
16 | 300% | 4.1 µM | CN(CCOc1ccc(CN)cc1)c1nc(-c2cccnc2)nc2ccccc12 [Compound 53]
17 | 170% | 3.1 µM | CN(CCOc1ccccc1)c1nc(-c2ccc(N)nc2)nc2ccccc12 [Compound 54]
18 | – | 7.08 µM | CN(CCOc1ccccc1)c1nc(-c2cccnc2)nc2ncccc12 [Compound 62]
19 | 787% | 10 µM | CN(CCOc1ccccc1)c1nc(-c2cccnc2)nc2ccoc12 [Compound 67]
20 | 255% | 4.47 µM | COC(=O)c1ccc(OCCN(C)c2nc(-c3cccnc3)nc3ccccc23)cc1 [Compound 76]
21 | 432% | 5.01 µM | COC(=O)c1cccc(OCCN(C)c2nc(-c3cccnc3)nc3ccccc23)c1 [Compound 77]
22 | 252% | 12.6 µM | CN(CCOc1ccc(C(=O)O)cc1)c1nc(-c2cccnc2)nc2ccccc12 [Compound 79]

The remaining lines, values behind:

Row | Structure (SMILES) | Emax | AC50
23 | CN(C[C@H]1COc2ccccc2O1)c1nc(-c2cccnc2)nc2ccccc12 [Compound 9, (S)—N-((2,3-dihydrobenzo[b][1,4]dioxin-2-yl)methyl)-N-methyl-2-(pyridin-3-yl)quinazolin-4-amine] | 645% | 1.49 µM
24 | CN(C[C@H]1COc2ccccc2O1)c1nc(-c2cccnc2)nc2c1cnn2C [Compound 10] | 573% | 1.38 µM
25 | CN(C[C@H]1COc2ccccc2O1)c1nc(-c2cccnc2)nc2ncccc12 [Compound 11] | – | 3.83 µM
26 | CN(C[C@@H]1COc2ccccc2O1)c1nc(-c2cccnc2)nc2ccccc12 [Compound 12] | 220% | 2.67 µM
27 | CCN(CCOc1ccccc1)c1nc(-c2cccnc2)nc2ccccc12 [Compound 14] | 430% | 5.01 µM
28 | CCCN(CCOc1ccccc1)c1nc(-c2cccnc2)nc2ccccc12 [Compound 15] | 130% | 3.12 µM
29 | O=C(O)CCCCCCCN(CCOc1ccccc1)c1nc(-c2cccnc2)nc2ccccc12 [Compound 19] | 150% | 1.78 µM
30 | O=C(CCCCCCCN(CCOc1ccccc1)c1nc(-c2cccnc2)nc2ccccc12)ON1C(=O)CCC1=O [Compound 20] | 500% | 1.26 µM
31 | c1ccc(OC2CCN(c3nc(-c4cccnc4)nc4ccccc34)C2)cc1 (stereo not drawn) [Compound 22] | 300% | 1.58 µM
32 | c1ccc(OCCOc2nc(-c3cccnc3)nc3ccccc23)cc1 [Compound 24] | 140% | 3.16 µM
33 | c1ccc(O[C@H]2CCCN(c3nc(-c4cccnc4)nc4ccccc34)C2)cc1 [Compound 25] | 220% | 3.98 µM
34 | c1ccc(O[C@@H]2CCCN(c3nc(-c4cccnc4)nc4ccccc34)C2)cc1 [Compound 26] | 225% | 1.78 µM
35 | CN(CCOC(C)(C)C)c1nc(-c2cccnc2)nc2ccccc12 [Compound 29] | 180% | 39.8 µM
36 | CN(CCc1c[nH]c2ccccc12)c1nc(-c2cccnc2)nc2ccccc12 [Compound 30] | 250% | 5.01 µM
37 | CN(CCOc1ccccc1)c1nc(-c2cncc(Cl)c2)nc2ccccc12 [Compound 32] | 250% | 1.21 µM
38 | CN(CCOc1ccccc1)c1nc(-c2cccnc2F)nc2ccccc12 [Compound 34] | 160% | 1.12 µM
39 | CN(CCOc1ccccc1)c1nc(-c2cncc(F)c2)nc2ccccc12 [Compound 35] | 180% | 0.51 µM
40 | CN(CCOc1ccccc1)c1nc(-c2cncc(C(F)(F)F)c2)nc2ccccc12 [Compound 37] | 250% | 1.65 µM
41 | CN(CCN(C)c1nc(-c2cccnc2)nc2ccccc12)c1ccccc1 [Compound 42] | 250% | 6.54 µM
42 | CN(CCOc1ccccc1)c1nc(-c2cccnc2)nc2c(C(F)(F)F)cccc12 [Compound 43] | 400% | 1.81 µM
43 | Cc1noc(C)c1-c1nc(N(C)CCOc2ccccc2)c2ccccc2n1 [Compound 47] | 175% | 2.21 µM

Row | Structure (SMILES) | Emax | AC50
44 | CN(CCOc1ccccc1)c1nc(-c2coc3ccccc23)nc2ccccc12 [Compound 49] | 120% | 2.42 µM
45 | Cc1sc2nc(-c3cccnc3)nc(N(C)CCOc3ccccc3)c2c1C [Compound 55] | 458% | 39.8 µM
46 | CN(CCOc1ccccc1)c1nc(-c2cccnc2)nc2c1CCC2 [Compound 56] | 295% | 3.3 µM
47 | CN(CCOc1ccccc1)c1nc(-c2cccnc2)nc2c1CCCC2 [Compound 58] | 130% | 1.41 µM
48 | CN(CCOc1ccccc1)c1nc(-c2cccnc2)nc2ccsc12 [Compound 59] | 333% | 5.01 µM
49 | CN(CCOc1ccccc1)c1nc(-c2cccnc2)nc2sccc12 [Compound 60] | 624% | 3.16 µM
50 | COC(=O)Cc1ccc(CNc2nc(-c3cccnc3)nc3ccccc23)cc1 [Compound 61] | 127% | 2.51 µM
51 | CN(CCOc1ccccc1)c1nc(-c2cccnc2)nc2[nH]ccc12 [Compound 63] | 461% | 3.98 µM
52 | Cc1csc2c(N(C)CCOc3ccccc3)nc(-c3cccnc3)nc12 [Compound 64] | 222% | 2.51 µM
53 | CN(CCOc1ccccc1)c1cc(-c2ccccc2)nc(-c2cccnc2)n1 [Compound 65] | 144% | 1 µM
54 | CN(CCOc1ccccc1)c1nc(Nc2ccccc2)nc2ccccc12 [Compound 66] | 141% | 7.08 µM
55 | CN(CCOc1ccccc1)c1nc(-c2cccnc2)nc2c1SCC2 [Compound 68] | 327% | 12.6 µM
56 | CN(CCOc1ccccc1)c1nc(-c2cncc(F)c2)nc2ncccc12 [Compound 69] | – | 7.1 µM
57 | Cc1nn(Cc2ccccc2)c(C)c1Nc1nc(-c2cccnc2)nc2ccccc12 [Compound 70] | 191% | 8.91 µM
58 | CN(CCOc1ccccc1)c1cc(N2CCOCC2)nc(-c2cccnc2)n1 [Compound 71] | 346% | 15.8 µM
59 | CN(CCOc1ccccc1)c1nc(-c2cccnc2)nc2c1ccn2C [Compound 72] | 927% | 6.31 µM
60 | CN(CCOc1ccccc1)c1nc(-c2cccnc2)nc2c1COC2 [Compound 73] | 330% | 5.62 µM
61 | Cc1nn(Cc2ccccc2)c(C)c1N(C)c1nc(-c2cccnc2)nc2ccccc12 [Compound 74] | 194% | 10 µM
62 | CN(CC1CCc2ccccc2C1)c1nc(-c2cccnc2)nc2ccccc12 (stereo not drawn) [Compound 75] | 115% | 2 µM
63 | CN(CCOc1ccccc1)c1nc(-c2cccnc2)nc2c1cnn2C [Compound 78] | 425% | 1.56 µM
